Tests used:
[1] = 298.15 K, Ring tensiometer
[2] = xn = mol fraction of the nth substance listed; conditions: 298.15 K, Ring tensiometer

O [water]
Conditions	surface tension liquid-gas [mN/m]
[1]	72.09

CC#N [acetonitrile] + O
[2]
Conditions	surface tension liquid-gas [mN/m]
x2 = 0.2032	29.46
x2 = 0.4087	30.95
x2 = 0.5149	31.45
x2 = 0.6041	31.68
x2 = 0.7459	32.92
x2 = 0.8145	33.97
x2 = 0.8773	37.97
x2 = 0.8977	39.63
x2 = 0.905	40.54
x2 = 0.9484	49.39
x2 = 0.9702	55.92
x2 = 0.9851	62.36

CC(C)O [propan-2-ol] + O
[2]
Conditions	surface tension liquid-gas [mN/m]
x2 = 0.099	21.65
x2 = 0.2949	21.97
x2 = 0.5018	22.28
x2 = 0.5993	22.74
x2 = 0.7021	23.28
x2 = 0.8	24.37
x2 = 0.8502	25.04
x2 = 0.8991	26.64
x2 = 0.945	32.36
x2 = 0.9598	35.83
x2 = 0.9697	39.36

CC#N [acetonitrile] + CC(C)O
[2]
Conditions	surface tension liquid-gas [mN/m]
x1 = 0.2001	21.05
x1 = 0.3621	21.55
x1 = 0.4885	22.15
x1 = 0.5398	22.44
x1 = 0.6001	22.88
x1 = 0.7	23.84
x1 = 0.8001	24.94
x1 = 0.8984	26.23
x1 = 0.9579	27.1
x1 = 0.9701	27.28
x1 = 0.9851	27.55

CC(C)O [propan-2-ol]
Conditions	surface tension liquid-gas [mN/m]
[1]	20.95

CC#N [acetonitrile]
Conditions	surface tension liquid-gas [mN/m]
[1]	27.76

Reference: the NIST ThermoML archive (doi:10.1021/je1001329)
